Experimental findings from patent publication US8101616B2, “Pyridine and pyrimidine derivatives as inhibitors of histone deacetylase” (Janssen Pharmaceutica N.V., priority 2006, dated 2012) are described below.

Usually solubility stands for the dissolved amount per volume that the medium holds. A lower solubility goes with a poorly soluble substance.

Series [1] has as its target histone deacetylase (HeLa nuclear extracts). The series can be described thus: In vitro assay for inhibition of histone deacetylase with fluorescent-labelled substrate (C.1). The series is classed as biochemical. Conditions: Fluor de Lys substrate. An excerpt:
The in vitro assay for inhibition of histone deacetylase (see example C.1) measures the inhibition of HDAC enzymatic activity obtained with the compounds of formula (I).
The HDAC Fluorescent Activity Assay/Drug Discovery Kit of Biomol (cat. No: AK-500-0001) was used. The HDAC Fluorescent Activity Assay is based on the Fluor de Lys (Fluorogenic Histone deAcetylase Lysyl) substrate and developer combination. The Fluor de Lys substrate, comprises an acetylated lysine side chain. Deacetylation of the substrate sensitizes the substrate so that, in the second step, treatment with the Fluor de Lys developer produces a fluorophore.
HeLa nuclear extracts (supplier: Biomol) were incubated at 60 μg/ml with 75 μM of substrate. The Fluor de Lys substrate was added in a buffer containing 25 mM Tris, 137 mM NaCl, 2.7 mM KCl and 1 mM MgCl2.6H2O at pH 7.4. After 30 min, 1 volume of the developer was added. The fluorophore was excited with 355 nm light and the emitted light (450 nm) was be detected on a fluorometric plate reader.
For each experiment, controls (containing HeLa nuclear extract and buffer), a blank incubation (containing buffer but no HeLa nuclear extract) and samples (containing compound dissolved in DMSO and further diluted in buffer and HeLa nuclear extract) were run in parallel. In first instance, compounds were tested at a concentration of 10^−5M. […] All sample were tested 4 times. In each test the blank value was substracted from both the control and the sample values. The control sample represented 100% of substrate deactylation. For each sample the fluorescence was expressed as a percentage of the mean value of the controls. […] Herein the effects of test compounds are expressed as pIC50 (the negative log value of the IC50-value) (see Table F-2).

The subject of series [2] is A2780 ovarian carcinoma cells. The series can be described thus: Antiproliferative activity on A2780 cells, MTT (C.2). The note with it: Homo sapiens, 96 h, four days of incubation, read-out: Cellular activity pIC50 C.2 (converted). The series is classed as cell-based. As for the experimental part:
Cellular activity of the compounds of formula (I) was determined on A2780 tumour cells using a […] assay for cell toxicity or survival (Mosmann Tim, Journal of Immunological Methods 65: 55-63, 1983) (see example C.2).
All compounds tested were dissolved in DMSO and further dilutions were made in culture medium. Final DMSO concentrations never exceeded 0.1% (v/v) in cell proliferation assays. Controls contained A2780 cells and DMSO without compound and blanks contained DMSO but no cells. MTT was dissolved at 5 mg/ml in PBS. A glycine buffer comprised of 0.1 M glycine and 0.1 M NaCl buffered to pH 10.5 with NaOH (1 N) was prepared (all reagents were from Merck).
The human A2780 ovarian carcinoma cells (a kind gift from Dr. T. C. Hamilton [Fox Chase Cancer Centre, Pennsylvania, USA]) were cultured in RPMI 1640 medium supplemented with 2 mM L-glutamine, 50 μg/ml gentamicin and 10% fetal calf serum. Cells were routinely kept as monolayer cultures at 37° C. in a humidified 5% CO2 atmosphere. Cells were passaged once a week using a trypsin/EDTA solution at a split ratio of 1:40. All media and supplements were obtained from Life Technologies. Cells were free of mycoplasma contamination as determined using the Gen-Probe Mycoplasma Tissue Culture kit (supplier: BioMérieux).
Cells were seeded in NUNC™ 96-well culture plates (Supplier: Life Technologies) and allowed to adhere to the plastic overnight. Densities used for plating were 1500 cells per well in a total volume of 200 μl medium. After cell adhesion to the plates, medium was changed and drugs and/or solvents were added to a final volume of 200 μl. Following four days of incubation, medium was replaced by 200 μl fresh medium and cell density and viability was assessed using an MTT-based assay. […] For each sample, the mean value for cell growth (in absorbance units) was expressed as a percentage of the mean value for cell growth of the control. […] Herein the effects of test compounds are expressed as pIC50 (the negative log value of the IC50-value) (see Table F-2).

Series [3] in a line: Solubility at pH 2.3, chemiluminescent nitrogen detector (C.3.b). The series is classed as physicochemical. As for the experimental part: The solubility of a compound measures the ability of a compound to stay in solution. In the first method, the ability of a compound to stay in aqueous solution upon dilution (see example C.3.a) is measured. DMSO-stock solutions are diluted with a single aqueous buffer solvent in different consecutive steps. In this method (C.3.a), mixtures are then scanned in the BD Gentest Solubility Scanner for the occurrence of precipitation. In a second method the solubility of a compound at different pH's can be measured with the use of a chemiluminescent nitrogen detector (see example C.3.b).
The solubility of a compound, at pH 2.3, can also be measured with the use of a chemiluminescent nitrogen detector (see Table F-2).

Values after ≈ are worked out from the molar mass of the structure shown. Read-outs that look alike come from different tables or passages of the source. Where only a bound is given, the exact number is not on record here.

For `COCC(/C=C/c1ccc(F)cc1)N1CCN(c2ccc(C(=O)Nc3ccccc3N)cn2)CC1` (stereo not drawn) [Compound 1], the “Enzymatic activity pIC50 C.1” value in series [1] is listed as under 6. Further, in series [2], the IC50 was 2510 nM. As to `Nc1ccccc1NC(=O)c1cnc(N2CCN(C(/C=C/c3cccc(F)c3)CO)CC2)nc1` (stereo not drawn) [Compound 2], the “Enzymatic activity pIC50 C.1” value in series [1] is reported as under 6. Further, the IC50 in series [2] is 251 nM.

Turning to `CCCO` [propanol], the “% metabolism” value (15 min incubation with active microsomes, reference compounds) is recorded as 25%. As for `COc1cc(N)c(Cl)cc1C(=O)NC1CCN(CCCOc2ccc(F)cc2)CC1OC` (stereo not drawn) [Cisapride], the “% metabolism” value (human, 15 min, 5 μM) was 45%. As for `Nc1ccccc1NC(=O)c1cnc(N2CCN(C(/C=C/c3ccccc3)CO)CC2)nc1` (stereo not drawn) [Compound 3], in series [1], the “Enzymatic activity pIC50 C.1” value was 4.8. For the same compound, the IC50 in series [2] is 200 nM. Further, the concentration in solution in series [3] (solubility) came to 3700 µg/mL (≈ 8.32 mM).
